Results published in patent US11911386B2, “Methods of treating B-cell proliferative disorder” (BeiGene Switzerland GmbH, priority 2022, dated 2024).
Where “and” joins values, the source holds several entries; their conditions need not be identical. Equal entries are not always repeated. Where two headings read alike, the source gives them in different places.

C=CC(=O)N1CCC([C@@H]2CCNc3c(C(N)=O)c(-c4ccc(Oc5ccccc5)cc4)nn32)CC1 [zanubrutinib, (S)-7-(1-acryloylpiperidin-4-yl)-2-(4-phenoxyphenyl)-4,5,6,7-tetrahydropyrazolo[1,5-a]pyrimidine-3-carboxamide]
Opportunistic infection AESI, EAIR (During Coadministration): 0.67 per 100 person-months
Opportunistic infection AESI, patients (During Coadministration): 2.9%
Opportunistic infection SAEs, EAIR (During Coadministration): 0.50 per 100 person-months
Patients with at least 1 AESI (During Coadministration): 67 (48.6) n (%)
Petechiae (hemorrhage AESI) (During Coadministration): 0.7%
Platelet count decreased PT (During Coadministration): 2.2%
Platelet count decreased ≥Grade 3 (During Coadministration): 1.4%
Purpura (hemorrhage AESI) (During Coadministration): 0.0%
SAEs of opportunistic infections, patients (During Coadministration): 2.2% and 2.9%
Second primary malignancies AESI leading to dose interruption (During Coadministration): 1.4%
Second primary malignancies AESI ≥Grade 3, EAIR (During Coadministration): 0.33 per 100 person-months
Second primary malignancies AESI ≥Grade 3, patients (During Coadministration): 1.4%
Second primary malignancies AESI, EAIR (During Coadministration): 0.72 per 100 person-months
Second primary malignancies AESI, patients (During Coadministration): 2.9%
Sepsis (During Coadministration): 2.2%
Serious AESI (During Coadministration): 29 (21.0) n (%)
Serious atrial fibrillation and flutter AESI, EAIR (During Coadministration): 0.0 per 100 person-months
Serious atrial fibrillation and flutter AESI, patients (During Coadministration): 0.0%
Serious external ear neoplasm malignant (During Coadministration): 1 (0.7%) n (%)
Serious haematuria (During Coadministration): 0 (0.0%) n (%)
Serious haematuria (major hemorrhage) (During Coadministration): 0 (0.0%) n (%)
Serious hemorrhage AESI, EAIR (During Coadministration): 0.0 per 100 person-months
Serious hemorrhage AESI, patients (During Coadministration): 0.0%
Serious hypertension AESI, EAIR (During Coadministration): 0.16 per 100 person-months
Serious infection AESI, EAIR (During Coadministration): 6.16 per 100 person-months
Serious major hemorrhage AESI, EAIR (During Coadministration): 0.0 per 100 person-months
Serious major hemorrhage AESI, patients (During Coadministration): 0.0%
Serious neutropenia AESI, EAIR (During Coadministration): 1.11 per 100 person-months
Serious neutropenia AESI, patients (During Coadministration): 4.3%
Serious neutropenic sepsis (During Coadministration): 0%
Serious neutrophil count decreased (During Coadministration): 0.7%
Serious second primary malignancies AESI, EAIR (During Coadministration): 0.33 per 100 person-months
Serious second primary malignancies AESI, patients (During Coadministration): 1.4%
Serious squamous cell carcinoma of skin (During Coadministration): 0 (0.0%) n (%)
Sinusitis (During Coadministration): 2.9%
Skin cancer AESI ≥Grade 3, EAIR (During Coadministration): 0.00 per 100 person-months
Skin cancer AESI, EAIR (During Coadministration): 0.17 per 100 person-months
Skin cancer AESI, patients (During Coadministration): 0.7%
Skin cancer SAE, EAIR (During Coadministration): 0.00 per 100 person-months
Squamous cell carcinoma of skin (During Coadministration): 0.7%
Squamous cell carcinoma of skin ≥Grade 3 (During Coadministration): 0 (0.0%) n (%)
Thrombocytopenia AESI leading to dose interruption (During Coadministration): 1.4%
Thrombocytopenia AESI ≥Grade 3, EAIR (During Coadministration): 0.83 per 100 person-months
Thrombocytopenia AESI ≥Grade 3, patients (During Coadministration): 3.6%
Thrombocytopenia AESI, EAIR (During Coadministration): 1.52 per 100 person-months
Thrombocytopenia AESI, patients (During Coadministration): 6.5%
Thrombocytopenia PT (During Coadministration): 4.3%
Viral upper respiratory tract infection (During Coadministration): 2.2%
Anemia AESI ≥Grade 3, EAIR (Prior to Coadministration): 0.54 per 100 person-months
Anemia AESI, EAIR (Prior to Coadministration): 1.07 per 100 person-months
Atrial fibrillation PT (Prior to Coadministration): 1.7%
Atrial fibrillation and flutter AESI Grade ≥3, EAIR (Prior to Coadministration): 0.13 per 100 person-months
Atrial fibrillation and flutter AESI Grade ≥3, patients (Prior to Coadministration): 1.7%
Atrial fibrillation and flutter AESI, EAIR (Prior to Coadministration): 0.13 per 100 person-months
Atrial fibrillation and flutter AESI, patients (Prior to Coadministration): 1.7%
Atrial flutter PT (Prior to Coadministration): 0.0%
Basal cell carcinoma (Prior to Coadministration): 4.2%
Basal cell carcinoma leading to dose interruption (Prior to Coadministration): 2 (1.7%) n (%)
Basal cell carcinoma ≥Grade 3 (Prior to Coadministration): 2 (1.7%) n (%)
Bronchopulmonary aspergillosis (Prior to Coadministration): 3 (2.5%) n (%)
External ear neoplasm malignant leading to dose interruption (Prior to Coadministration): 2 (1.7%) n (%)
Febrile neutropenia PT (Prior to Coadministration): 1.7%
Grade 3 or higher AESI (Prior to Coadministration): 69 (58.0) n (%)
Haematuria (hemorrhage AESI) (Prior to Coadministration): 8.4%
Haematuria (major hemorrhage) (Prior to Coadministration): 2 (1.7%) n (%)
Haematuria (major hemorrhage) ≥Grade 3 (Prior to Coadministration): 2 (1.7%) n (%)
Haematuria leading to dose interruption (Prior to Coadministration): 2 (1.7%) n (%)
Haematuria ≥Grade 3 (Prior to Coadministration): 2 (1.7%) n (%)
Hemorrhage AESI leading to dose interruption (Prior to Coadministration): 3.4%
Hemorrhage AESI leading to dose reduction (Prior to Coadministration): 1.7%
Hemorrhage AESI ≥Grade 3, EAIR (Prior to Coadministration): 0.19 per 100 person-months
Hemorrhage AESI ≥Grade 3, patients (Prior to Coadministration): 2.5%
Hemorrhage AESI, EAIR (Prior to Coadministration): 9.70 per 100 person-months
Hemorrhage AESI, patients (Prior to Coadministration): 55.5%
Hepatitis B reactivation AESI (Prior to Coadministration): 2.5%
Hepatitis B reactivation AESI ≥Grade 3 (Prior to Coadministration): 2 (1.7%) n (%)
Hypertension AESI ≥Grade 3, EAIR (Prior to Coadministration): 0.56 per 100 person-months
Hypertension AESI ≥Grade 3, patients (Prior to Coadministration): 6.7%
Hypertension AESI, EAIR (Prior to Coadministration): 1.13 per 100 person-months
Hypertension AESI, patients (Prior to Coadministration): 12.6%
Infection AESI leading to death (Prior to Coadministration): 0.8%
Infection AESI leading to dose reduction (Prior to Coadministration): 7.6%
Infection AESI leading to treatment discontinuation (Prior to Coadministration): 1.7%
Infection AESI ≥Grade 3, EAIR (Prior to Coadministration): 3.82 per 100 person-months
Infection AESI, EAIR (Prior to Coadministration): 18.08 per 100 person-months
Major hemorrhage AESI leading to dose interruption (Prior to Coadministration): 1.7%
Major hemorrhage AESI ≥Grade 3, EAIR (Prior to Coadministration): 0.19 per 100 person-months
Major hemorrhage AESI ≥Grade 3, patients (Prior to Coadministration): 2.5%
Major hemorrhage AESI, EAIR (Prior to Coadministration): 0.25 per 100 person-months
Major hemorrhage AESI, patients (Prior to Coadministration): 3.4%
Malignant melanoma (Prior to Coadministration): 2 (1.7%) n (%)
Meningitis cryptococcal (Prior to Coadministration): 2 (1.7%) n (%)
Neutropenia AESI leading to dose reduction (Prior to Coadministration): 2.5%
Neutropenia AESI leading to treatment interruption (Prior to Coadministration): 7.6%
Neutropenia AESI ≥Grade 3, EAIR (Prior to Coadministration): 1.74 per 100 person-months
Neutropenia AESI ≥Grade 3, patients (Prior to Coadministration): 20.2%
Neutropenia AESI, EAIR (Prior to Coadministration): 2.72 per 100 person-months
Neutropenia AESI, patients (Prior to Coadministration): 28.6%
Neutropenic sepsis PT (Prior to Coadministration): 0.8%
Neutropenic sepsis ≥Grade 3 (Prior to Coadministration): 0.8%
Neutrophil count decreased leading to dose reduction (Prior to Coadministration): 0.8%
Opportunistic infection AESI leading to dose reduction (Prior to Coadministration): 3.4%
Opportunistic infection AESI leading to treatment discontinuation (Prior to Coadministration): 0.8%
Opportunistic infection AESI ≥Grade 3, EAIR (Prior to Coadministration): 0.38 per 100 person-months
Opportunistic infection AESI ≥Grade 3, patients (Prior to Coadministration): 6 (5.0%) n (%)
Opportunistic infection AESI, EAIR (Prior to Coadministration): 0.64 per 100 person-months
Opportunistic infection AESI, patients (Prior to Coadministration): 8.4%
Opportunistic infection SAEs, EAIR (Prior to Coadministration): 0.38 per 100 person-months
Patients with at least 1 AESI (Prior to Coadministration): 115 (96.6) n (%)
Petechiae (hemorrhage AESI) (Prior to Coadministration): 5.9%
Platelet count decreased PT (Prior to Coadministration): 3.4%
Platelet count decreased ≥Grade 3 (Prior to Coadministration): 0.8%
Purpura (hemorrhage AESI) (Prior to Coadministration): 5.9%
SAEs of opportunistic infections, patients (Prior to Coadministration): 5.0% and 8.4%
Second primary malignancies AESI leading to dose interruption (Prior to Coadministration): 4.2%
Second primary malignancies AESI ≥Grade 3, EAIR (Prior to Coadministration): 0.32 per 100 person-months
Second primary malignancies AESI ≥Grade 3, patients (Prior to Coadministration): 4.2%
Second primary malignancies AESI, EAIR (Prior to Coadministration): 1.05 per 100 person-months
Second primary malignancies AESI, patients (Prior to Coadministration): 12.6%
Serious AESI (Prior to Coadministration): 53 (44.5) n (%)
Serious anemia AESI, EAIR (Prior to Coadministration): 0.06 per 100 person-months
Serious atrial fibrillation and flutter AESI, EAIR (Prior to Coadministration): 0.06 per 100 person-months
Serious atrial fibrillation and flutter AESI, patients (Prior to Coadministration): 0.8%
Serious external ear neoplasm malignant (Prior to Coadministration): 2 (1.7%) n (%)
Serious haematuria (Prior to Coadministration): 2 (1.7%) n (%)
Serious haematuria (major hemorrhage) (Prior to Coadministration): 2 (1.7%) n (%)
Serious hemorrhage AESI, EAIR (Prior to Coadministration): 0.25 per 100 person-months
Serious hemorrhage AESI, patients (Prior to Coadministration): 3.4%
Serious infection AESI, EAIR (Prior to Coadministration): 3.31 per 100 person-months
Serious major hemorrhage AESI, EAIR (Prior to Coadministration): 0.25 per 100 person-months
Serious major hemorrhage AESI, patients (Prior to Coadministration): 3.4%
Serious neutropenia AESI, EAIR (Prior to Coadministration): 0.26 per 100 person-months
Serious neutropenia AESI, patients (Prior to Coadministration): 3.4%
Serious neutropenic sepsis (Prior to Coadministration): 0.8%
Serious neutrophil count decreased (Prior to Coadministration): 0.0%
Serious second primary malignancies AESI, EAIR (Prior to Coadministration): 0.39 per 100 person-months
Serious second primary malignancies AESI, patients (Prior to Coadministration): 5.0%
Serious squamous cell carcinoma of skin (Prior to Coadministration): 2 (1.7%) n (%)
Skin cancer AESI ≥Grade 3, EAIR (Prior to Coadministration): 0.26 per 100 person-months
Skin cancer AESI, EAIR (Prior to Coadministration): 0.69 per 100 person-months
Skin cancer AESI, patients (Prior to Coadministration): 8.4%
Skin cancer SAE, EAIR (Prior to Coadministration): 0.26 per 100 person-months
Squamous cell carcinoma of skin (Prior to Coadministration): 5.0%
Squamous cell carcinoma of skin ≥Grade 3 (Prior to Coadministration): 2 (1.7%) n (%)
Thrombocytopenia AESI leading to dose interruption (Prior to Coadministration): 0.8%
Thrombocytopenia AESI ≥Grade 3, EAIR (Prior to Coadministration): 0.26 per 100 person-months
Thrombocytopenia AESI ≥Grade 3, patients (Prior to Coadministration): 3.4%
Thrombocytopenia AESI, EAIR (Prior to Coadministration): 0.79 per 100 person-months
Thrombocytopenia AESI, patients (Prior to Coadministration): 9.2%
Thrombocytopenia PT (Prior to Coadministration): 6.7%
Tumor lysis syndrome AESI (all study periods): No AESI of tumor lysis syndrome were reported
